# Data taken from patent publication US4428963A, “Novel thiophene derivatives” (Hoffmann-La Roche Inc., priority 1983, dated 1984).
# Assays:
# [1] = system: Fatty Acid Synthesis (liver); experiment: In vivo lipogenesis in rat liver after intraperitoneal administration (Table II); conditions: i.p. 0.1 mmoles/kg; control 614 ± 66
# Protocol: (§1) Rats are prepared by fasting 48 hours and refeeding a 1% corn oil 70% glucose diet for several days (5-15). On the experimental day, rats are dosed 30 or 60 minutes before the 3 hour meal by oral intubation, or 60 minutes after the end of the 3 hour meal by intraperitoneal injection. (The dose concentrated is a mmoles/kg/5-10 ml H2 O or 1% gum arabic depending on the solubility of the compound.) Rats are sacrificed by decapitation after a 30 minute pulse consisting of: 1mCi^3 H2 O,5 μCi[U-^14 C]alanine, 12.3 mg. alanine, and 30.6 mg α-ketoglutaric acid in […], given at the end of the 3 hour meal by i.v. injection into the tail vein. Blood was collected, allowed to clot and the serum analyzed for triglyceride and cholesterol levels. […] At this stage the lipids are either counted (to determine the rate of lipogenesis) or precipitated with digitonin, washed, and counted (to determine the rate of cholesterogenesis). The conversion of ^3 H2 O and [^14 C]alanine into fatty acids or sterols is determined in a PDS/3, Mark II liquid scintillation counting system. Data are expressed as moles ^3 H2 O nmoles converted into fatty acids and cholesterol per g liver per 30 minutes. […]
# (§2) sacrificed and rates of synthesis determined.
# (§3) ^b Data are expressed as μmoles ^3 H2 O and moles[ ^1 […]
# [2] = system: Cholesterol Synthesis (liver); experiment: In vivo cholesterogenesis in rat liver after intraperitoneal administration (Table II); conditions: i.p. 0.1 mmoles/kg
# Protocol: as §1, §2, §3
# [3] = Serum lipids after intraperitoneal administration (Table III); format: in vivo, rat; conditions: i.p. 0.1 mmoles/kg
# Protocol: Rats are prepared by fasting 48 hours and refeeding a 1% corn oil 70% glucose diet for several days (5-15). On the experimental day, rats are dosed 30 or 60 minutes before the 3 hour meal by oral intubation, or 60 minutes after the end of the 3 hour meal by intraperitoneal injection. (The dose concentrated is a mmoles/kg/5-10 ml H2 O or 1% gum arabic depending on the solubility of the compound.) Rats are sacrificed by decapitation after a 30 minute pulse consisting of: 1mCi^3 H2 O,5 μCi[U-^14 C]alanine, 12.3 mg. alanine, and 30.6 mg α-ketoglutaric acid in […], given at the end of the 3 hour meal by i.v. injection into the tail vein. Blood was collected, allowed to clot and the serum analyzed for triglyceride and cholesterol levels. The livers are quickly excised, saponified, and acidified (only for determining the rate of lipogenesis) and extracted with hexane. At this stage the lipids are either counted (to determine the rate of lipogenesis) or precipitated with digitonin, washed, and counted (to determine the rate of cholesterogenesis). The conversion of ^3 H2 O and [^14 C]alanine into fatty acids or sterols is determined in a PDS/3, Mark II liquid scintillation counting system. Data are expressed as moles ^3 H2 O nmoles converted into fatty acids and cholesterol per g liver per 30 minutes. […]
# as §2
# [4] = system: Fatty Acid Synthesis (liver); experiment: In vivo fatty acid synthesis in rat liver after oral administration (Table IV); conditions: oral 1.2 mmoles/kg
# Protocol: (§4) Rats are prepared by fasting 48 hours and refeeding a 1% corn oil 70% glucose diet for several days (5-15). On the experimental day, rats are dosed 30 or 60 minutes before the 3 hour meal by oral intubation, or 60 minutes after the end of the 3 hour meal by intraperitoneal injection. (The dose concentrated is a mmoles/kg/5-10 ml H2 O or 1% gum arabic depending on the solubility of the compound.) Rats are sacrificed by decapitation after a 30 minute pulse consisting of: 1mCi^3 H2 O,5 μCi[U-^14 C]alanine, 12.3 mg. alanine, and 30.6 mg α-ketoglutaric acid in […], given at the end of the 3 hour meal by i.v. injection into the tail vein. Blood was collected, allowed to clot and the serum analyzed for triglyceride and cholesterol levels. The livers are quickly excised, saponified, and acidified (only for determining the rate of lipogenesis) and extracted with hexane. At this stage the lipids are either counted (to determine the rate of lipogenesis) or precipitated with digitonin, washed, and counted (to determine the rate of cholesterogenesis). The conversion of ^3 H2 O and [^14 C]alanine into fatty acids or sterols is determined in a PDS/3, Mark II liquid scintillation counting system. Data are expressed as moles ^3 H2 O nmoles converted into fatty acids and cholesterol per g liver per 30 minutes.
# (§5) ^a Charles River CD rats (6 rats per group at 160-180 g) were fasted
# (§6) 48 hours, then mealfed a high carbohydrate diet for 18 days. On the
# (§7) experimental day, rats were given an oral dose (1% gum arabic or
# (§8) 3amino-4-carbomethoxy-2-n-propylthiophene hydrochloride in 1% gum arabic
# (§9) at the above concentrations) 30 minutes before the beginning of the meal.
# (§10) At the end of the 3 hour meal, the rats were given an i.v. pulse,
# sacrificed 30 minutes later and rates of synthesis were determined.
# (§11) ^b Data are expressed as μmoles ^3 H2 O and nmoles
# [^14 C]alanine converted into fatty acids per g liver per 30 minutes.
# [5] = system: Cholesterol Synthesis (liver); experiment: In vivo cholesterol synthesis in rat liver after oral administration (Table V); conditions: for Cholesterol Synthesis, 3H2O converted: control 1.35 ± 0.04; for Cholesterol Synthesis, [14C]alanine converted: control 33.0 ± 3.1
# Protocol: as §4, §5, §6, §7, §8, §9, §10
# sacrificed 30 minutes later, and rates of synthesis were determined.
# as §11
# [^14 C]alanine converted into cholesterol per g liver per 30 minutes.
# [6] = system: Hepatic Fatty Acid Synthesis; experiment: Hepatic fatty acid synthesis after oral administration at increasing concentrations (Table VI); format: in vivo, rat; conditions: oral gavage, 0.4 to 1.2 mmoles/kg over 10 days
# Protocol: as §4
# (§12) ^a Charles River female rats were fasted 48 hr, then mealfed (8 to 11
# (§13) a.m.) a high carbohydrate diet for 14 days. Rats weighing 180 to 210 g (1
# (§14) in each group) were dosed by gastric gavage, with either 1% gum arabic or
# (§15) Compound A in 1% gum arabic. The initial dose was 0.4 mmoles (89 mg) per
# (§16) kg body weight and was increased by 0.2 mmoles (44 mg) per kg body weight
# (§17) every other day. The experimental period consisted of 10 days, and the
# (§18) doses given were 0.4, 0.6, 0.8, 1.0 and 1.2 mmoles per kg. All rats were
# (§19) fed 1/2 hr after the oral dose. On the 10th day, following the 3 hr meal,
# (§20) each rat received an intravenous injection (consisting of 5 μCi
# (§21) [U^14 C]alanine, 1 mCi ^3 H2 O, 12.3 mg alanine and 30.6 mg
# (§22) ketoglutaric acid) and was killed 30 min later. Livers were quickly
# (§23) excised, saponified, and extracted for fatty acids or cholesterol. Data
# (§24) are expressed as μmoles ^3 H2 O or nmoles [^14 C]alanine
# (§25) converted into fatty acids or cholesterol per gram liver per 30 min.
# (§26) Each value is the mean ± SE.
# [7] = system: Hepatic Cholesterol Synthesis; experiment: Hepatic cholesterol synthesis after oral administration at increasing concentrations (Table VI); format: in vivo, rat; conditions: oral gavage, 0.4 to 1.2 mmoles/kg over 10 days
# Protocol: as §4, §12, §13, §14, §15, §16, §17, §18, §19, §20, §21, §22, §23, §24, §25, §26
# [8] = Serum triglycerides, cholesterol, insulin and glucose after oral administration at increasing concentrations (Table VII); format: in vivo, rat; conditions: oral gavage, 0.4 to 1.2 mmoles/kg over 10 days
# Protocol: as §4, §12, §13, §14, §15, §16, §17, §18
# fed 1/2 hr after the oral dose. On the 10th day, following the 3 hr meal
# as §20, §21
# ketoglutaric acid) and was killed 30 min later. Blood was collected,
# allowed to clot and serum analyzed.
# Each value is the mean ±SE
# [9] = Body weight and food intake in ad libitum high fat fed rats, 63 day study (Table VIII); format: in vivo, rat
# Protocol: (§27) As previously mentioned, the compounds disclosed and claimed herein are also useful as antiobesity agents. […] Groups of 10 rats were fed ad libitum a 10% corn oil, 60% glucose diet in accordance with the methodology described in Sullivan et al., Am. J. Clin. Nutr. 30:767-776 (1977). The effect of 4-amino-5-ethyl-3-thiophene carboxylic acid methyl ester hydrochloride on body weight, total body fat and protein was determined. The results are tabulated in Example 35 (Table VIII and Table IX) of the specification.
# (§28) The antiobesity activity of 4-amino-5-ethyl-3-thiophene carboxylic acid methyl ester hydrochloride (Compound A) was evaluated in a long-term chronic experiment in which body weight gain and food consumption were monitored at least biweekly. The study was conducted on Charles River rats receiving 10% corn oil: 60% glucose (high fat) diets. For the first 32 days of this study a dose of approximately 71 mg./kg. body weight/day was given. From day 33 until the end of the study the average daily dose was increased to 130 mg./kg. body weight/day. The study included a group of rats pair-fed to the Compound A treated rats, i.e., the pair-fed animals received the same amount of food as their Compound A paired rat consumed on the previous day. Pair feeding was terminated several days after food intake in the Compound A treated groups returned to control levels. Pair-feeding to the Compound A treated group was terminated on day 22. Upon termination of the study, carcass lipid and protein levels, serum lipids and hepatic rates of fatty acid synthesis in vivo were determined. A summary of the initial and final body weights, cumulative weight gained and food consumed and average daily food intake is presented in Table VIII.
# (§29) ^a Female Charles River rats (10 rats per group) were fed ad libitum
# (§30) the 10% corn oil:60% glucose diet. On day 1 of the experiment rats were
# (§31) divided into three groups: (1) control, (2) Compound A as a dietary
# admixture (71 mg/kg body weight/day, and (3) pairfed to the Compound A
# treated group. Pairfeeding was terminated on day 23. On day 33 the
# concentraton of Compound A was increased to 130 mg/kg/day.
# [10] = Total body fat and protein in ad libitum high fat fed rats, 63 day study (Table IX); format: in vivo, rat; conditions: dietary admixture 71 then (day 33) 130 mg/kg/day, 63 days
# Protocol: as §27, §28, §29, §30, §31
# admixture (71 mg/kg body weight/day), and (3) pairfed to the Compound A
# treated group. Pairfeeding was terminated on day 22. On day 33 the
# concentration of Compound A was increased to 130 mg/kg/day.
# [11] = oral 0.4 nmoles/kg (so in the source)
smiles,measurement,setting,value
CCCc1scc(C(=O)OC)c1N.Cl [3-amino-4-carbomethoxy-2-n-propylthiophene hydrochloride],"Fatty Acid Synthesis, [14C]alanine converted",[1],251 ± 36 nmoles/g/30 min.
same,"Cholesterol Synthesis, 3H2O converted",[2]; control 1.36 ± 0.07,0.85 ± 0.06 μmoles/g/30 min.
same,"Cholesterol Synthesis, [14C]alanine converted",[2]; control 35.7 ± 3.2,17.6 ± 1.9 nmoles/g/30 min
same,Triglycerides (serum),[3]; control 67 ± 4,51 ± 3 mg %
same,Cholesterol (serum),[3]; control 116 ± 7,105 ± 11 mg %
same,"Fatty Acid Synthesis, 3H2O, % of Control",[4],36 % of Control
same,"Fatty Acid Synthesis, [14C]alanine, % of Control",[4],34 % of Control
same,"Fatty Acid Synthesis, 3H2O converted",[4]; control 19.6 ± 2.4,7.1 ± 1.7 μmoles/g/30 min.
same,"Fatty Acid Synthesis, [14C]alanine converted",[4]; control 473 ± 76,162 ± 60 nmoles/g/30 min.
same,"Cholesterol Synthesis, 3H2O, % of Control",[5]; [11],71 % of Control
same,"Cholesterol Synthesis, [14C]alanine, % of Control",[5]; [11],53 % of Control
same,"Cholesterol Synthesis, 3H2O converted",[5]; [11],0.96 ± 0.05 μmoles/g/30 min.
same,"Cholesterol Synthesis, [14C]alanine converted",[5]; [11],17.4 ± 0.9 nmoles/g/30 min.
same,"Cholesterol Synthesis, 3H2O, % of Control",[5]; oral 1.2 mmoles/kg,65 % of Control
same,"Cholesterol Synthesis, [14C]alanine, % of Control",[5]; oral 1.2 mmoles/kg,46 % of Control
same,"Cholesterol Synthesis, 3H2O converted",[5]; oral 1.2 mmoles/kg,0.88 ± 0.16 μmoles/g/30 min.
same,"Cholesterol Synthesis, [14C]alanine converted",[5]; oral 1.2 mmoles/kg,15.2 ± 3.2 nmoles/g/30 min.
"CCc1scc(C(=O)OC)c1N.Cl [Compound A, 4-amino-5-ethyl-3-thiophenecarboxylic acid methyl ester hydrochloride]","Fatty Acid Synthesis, 3H2O (value in parentheses, relative to control)",[6],49%
same,"Fatty Acid Synthesis, [14C]alanine (value in parentheses, relative to control)",[6],42%
same,"Fatty Acid Synthesis, 3H2O","[6]; mean ± SE, control 36.7 ± 2.7",18.0 ± 2.3 μmoles/g/30 min
same,"Fatty Acid Synthesis, [14C]alanine","[6]; mean ± SE, control 685 ± 59",290 ± 49 nmoles/g/30 min
same,"Cholesterol Synthesis, 3H2O (value in parentheses, relative to control)",[7],120%
same,"Cholesterol Synthesis, [14C]alanine (value in parentheses, relative to control)",[7],114%
same,"Cholesterol Synthesis, 3H2O","[7]; mean ± SE, control 0.50 ± 0.06",0.60 ± 0.06 μmoles/g/30
same,"Cholesterol Synthesis, [14C]alanine","[7]; mean ± SE, control 13.9 ± 1.5",15.8 ± 1.6 nmol/g/30 min
same,"Cholesterol (value in parentheses, relative to control)",[8],81%
same,"Glucose (value in parentheses, relative to control)",[8],97%
same,"Insulin (value in parentheses, relative to control)",[8],49%
same,"Triglycerides (value in parentheses, relative to control)",[8],62%
same,Insulin (serum),"[8]; mean ± SE, control 3.85 ± 0.74",1.91 ± 0.24 ng/mL
same,Triglycerides (serum),"[8]; mean ± SE, control 51 ± 3",31 ± 3 mg %
same,Cholesterol (serum),"[8]; mean ± SE, control 97 ± 5",79 ± 6 mg %
same,Glucose (serum),"[8]; mean ± SE, control 165 ± 7",160 ± 5 mg %
same,IBW (initial body weight),"[9]; baseline of Compound A group, control 215 ± 3",214 ± 3 g
same,FI (food intake),"[9]; dietary admixture 71 then (day 33) 130 mg/kg/day, 63 days, control 17.7 ± 0.7, pair-fed 16.0 ± 0.4",16.3 ± 0.4 g/day
same,CBWG (cumulative body weight gain),"[9]; dietary admixture 71 then (day 33) 130 mg/kg/day, 63 days, control 68 ± 6, pair-fed 66 ± 6",41 ± 4 g
same,FBW (final body weight),"[9]; dietary admixture 71 then (day 33) 130 mg/kg/day, 63 days, control 282 ± 8, pair-fed 281 ± 6",256 ± 4 g
same,CFC (cumulative food consumption),"[9]; dietary admixture 71 then (day 33) 130 mg/kg/day, 63 days, control 1115.1 ± 44.1, pair-fed 1008.0 ± 25.2",1026.9 ± 25.2 g
same,"Protein, % of body weight",[10]; control 19.1 ± 1.6,20.7 ± 1.4 % of body weight
same,"Lipid, % of body weight",[10]; control 23.5 ± 2.2,16.5 ± 1.7 % of body weight
same,"Protein, total",[10]; control 54.1 ± 4.8,52.7 ± 0.6 g
same,"Lipid, total",[10]; control 66.8 ± 7.1,42.1 ± 4.5 g
